The source of these data is ChEMBL document CHEMBL1146779, “Bridgehead-methyl analog of SC-53116 as a 5-HT4 agonist” (Bioorg Med Chem Lett, 2004).

For experiment [1], the target named is T1, 5-hydroxytryptamine receptor 4 (Rattus norvegicus, UniProt Q62758). As to the kind of experiment: Compound was tested for agonist activity at the 5-hydroxytryptamine 4 receptor in the rat tunica muscularis mucosae (TMM) assay; IN = Inactive. In kind it is functional, tissue-based, Muscularis mucosa.
Experiment [2] has as its target Serotonin 1 (5-HT1) receptor (Rattus norvegicus, UniProt P28564+P30940+P19327+P28565). Put plainly: Compound was evaluated for 5-hydroxytryptamine 1 receptor binding. In kind it is protein assay.
The target in experiment [3] is Serotonin 2 (5-HT2) receptor (Homo sapiens, UniProt P41595+P28223+P28335). As to the kind of experiment: Compound was evaluated for 5-hydroxytryptamine 2 receptor binding. In kind it is protein assay.
The target of experiment [4] is T1, 5-hydroxytryptamine receptor 4. Put plainly: Compound was tested for agonist activity at the 5-hydroxytryptamine 4 receptor in the rat tunica muscularis mucosae (TMM) assay. In kind it is functional, tissue-based, Muscularis mucosa.
Experiment [5] shares this target. Put plainly: Tested for agonist activity at the 5-hydroxytryptamine 4 receptor in the rat tunica muscularis mucosae (TMM) assay of racemate mixture. In kind it is functional.
Experiment [6] has as its target Serotonin 3 (5-HT3) receptor. Put plainly: Compound was evaluated for 5-hydroxytryptamine 3 receptor binding. In kind it is protein-complex assay.
For experiment [7], the target named is T2, Adrenergic receptor alpha-2 (Homo sapiens, UniProt P08913+P18825+P18089).
T2 sequence (P08913 whole entry): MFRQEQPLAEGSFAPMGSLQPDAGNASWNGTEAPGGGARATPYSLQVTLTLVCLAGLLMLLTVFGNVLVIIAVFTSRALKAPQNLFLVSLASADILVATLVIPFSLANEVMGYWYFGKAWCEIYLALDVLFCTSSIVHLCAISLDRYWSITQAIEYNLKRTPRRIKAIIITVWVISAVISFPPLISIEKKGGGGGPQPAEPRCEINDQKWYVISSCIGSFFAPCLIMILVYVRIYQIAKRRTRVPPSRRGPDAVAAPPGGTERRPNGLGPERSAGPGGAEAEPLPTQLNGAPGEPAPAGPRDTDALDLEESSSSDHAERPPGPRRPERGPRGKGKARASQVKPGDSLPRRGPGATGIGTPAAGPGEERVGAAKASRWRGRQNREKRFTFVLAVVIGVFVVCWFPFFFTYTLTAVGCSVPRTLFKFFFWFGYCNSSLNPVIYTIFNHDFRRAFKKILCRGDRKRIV
T2 sequence (P18825 whole entry): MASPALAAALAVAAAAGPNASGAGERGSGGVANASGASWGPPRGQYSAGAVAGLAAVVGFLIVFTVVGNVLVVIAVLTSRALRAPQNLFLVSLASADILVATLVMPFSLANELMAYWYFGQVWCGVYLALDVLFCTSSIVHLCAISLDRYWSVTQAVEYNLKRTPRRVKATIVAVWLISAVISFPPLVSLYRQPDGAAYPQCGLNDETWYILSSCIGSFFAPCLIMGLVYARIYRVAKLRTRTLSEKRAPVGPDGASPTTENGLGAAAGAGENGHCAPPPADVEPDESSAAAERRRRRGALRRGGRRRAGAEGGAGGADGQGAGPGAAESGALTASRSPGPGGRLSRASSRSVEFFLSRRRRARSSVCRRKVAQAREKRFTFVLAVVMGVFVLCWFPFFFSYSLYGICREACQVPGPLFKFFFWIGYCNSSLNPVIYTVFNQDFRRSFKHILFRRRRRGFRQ
T2 sequence (P18089 whole entry): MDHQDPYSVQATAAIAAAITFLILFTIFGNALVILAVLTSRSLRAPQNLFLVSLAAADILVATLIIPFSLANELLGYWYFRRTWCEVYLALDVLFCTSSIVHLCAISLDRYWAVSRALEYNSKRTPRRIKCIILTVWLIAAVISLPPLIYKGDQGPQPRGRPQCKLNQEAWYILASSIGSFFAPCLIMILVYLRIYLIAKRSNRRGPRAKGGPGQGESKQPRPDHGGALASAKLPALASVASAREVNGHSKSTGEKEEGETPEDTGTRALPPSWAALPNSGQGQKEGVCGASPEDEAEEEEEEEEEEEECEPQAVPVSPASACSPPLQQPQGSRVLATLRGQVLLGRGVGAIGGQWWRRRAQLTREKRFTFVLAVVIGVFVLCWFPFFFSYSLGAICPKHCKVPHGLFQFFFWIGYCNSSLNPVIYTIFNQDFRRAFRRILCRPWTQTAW
Put plainly: Compound was evaluated for alpha-2 adrenergic receptor binding. In kind it is protein assay.

In experiment [8] the target is T3, Adrenergic receptor alpha-1 (Homo sapiens, UniProt P35348+P25100+P35368).
T3 sequence (P35348 whole entry): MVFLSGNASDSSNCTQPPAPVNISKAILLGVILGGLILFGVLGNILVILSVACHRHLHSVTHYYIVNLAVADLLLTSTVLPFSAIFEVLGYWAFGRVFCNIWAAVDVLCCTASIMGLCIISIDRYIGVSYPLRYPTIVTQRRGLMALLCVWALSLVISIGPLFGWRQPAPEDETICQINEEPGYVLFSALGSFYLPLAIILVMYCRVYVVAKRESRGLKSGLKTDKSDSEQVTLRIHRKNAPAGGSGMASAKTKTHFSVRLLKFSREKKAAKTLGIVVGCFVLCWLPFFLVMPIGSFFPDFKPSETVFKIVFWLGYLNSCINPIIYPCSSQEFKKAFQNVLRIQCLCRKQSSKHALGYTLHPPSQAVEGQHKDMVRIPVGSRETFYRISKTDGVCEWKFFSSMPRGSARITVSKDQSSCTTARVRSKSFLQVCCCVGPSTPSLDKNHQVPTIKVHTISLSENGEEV
T3 sequence (P25100 whole entry): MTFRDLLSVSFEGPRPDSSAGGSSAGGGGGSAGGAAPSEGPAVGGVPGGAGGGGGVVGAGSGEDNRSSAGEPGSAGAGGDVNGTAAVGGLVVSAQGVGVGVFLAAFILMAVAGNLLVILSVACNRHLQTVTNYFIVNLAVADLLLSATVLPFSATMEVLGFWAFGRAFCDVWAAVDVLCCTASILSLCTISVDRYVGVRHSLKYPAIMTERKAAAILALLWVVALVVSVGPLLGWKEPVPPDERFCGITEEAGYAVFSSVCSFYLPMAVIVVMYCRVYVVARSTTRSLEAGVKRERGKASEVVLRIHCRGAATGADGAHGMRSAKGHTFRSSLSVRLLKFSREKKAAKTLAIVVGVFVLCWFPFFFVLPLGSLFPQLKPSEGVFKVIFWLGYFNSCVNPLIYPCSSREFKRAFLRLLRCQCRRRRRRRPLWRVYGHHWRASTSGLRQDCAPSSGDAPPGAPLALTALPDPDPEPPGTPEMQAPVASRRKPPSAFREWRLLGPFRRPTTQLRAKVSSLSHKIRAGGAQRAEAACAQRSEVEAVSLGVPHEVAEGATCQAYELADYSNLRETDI
T3 sequence (P35368 whole entry): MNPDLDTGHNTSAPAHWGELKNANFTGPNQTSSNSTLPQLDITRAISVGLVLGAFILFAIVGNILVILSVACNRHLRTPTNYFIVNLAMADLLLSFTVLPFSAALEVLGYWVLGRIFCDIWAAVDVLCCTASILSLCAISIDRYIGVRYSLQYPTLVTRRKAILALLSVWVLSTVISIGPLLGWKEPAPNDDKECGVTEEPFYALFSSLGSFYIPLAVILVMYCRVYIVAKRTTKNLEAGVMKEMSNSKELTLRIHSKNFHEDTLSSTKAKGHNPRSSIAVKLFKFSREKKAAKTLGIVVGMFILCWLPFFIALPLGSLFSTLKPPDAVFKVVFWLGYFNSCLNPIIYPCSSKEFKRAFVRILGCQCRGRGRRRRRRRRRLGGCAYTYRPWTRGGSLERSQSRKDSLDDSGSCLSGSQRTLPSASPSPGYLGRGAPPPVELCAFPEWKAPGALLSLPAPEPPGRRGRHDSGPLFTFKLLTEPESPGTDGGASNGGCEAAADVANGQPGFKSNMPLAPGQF
As to the kind of experiment: Compound was evaluated for alpha-1 adrenergic receptor binding. In kind it is protein assay.

The next experiment addresses Adrenergic receptor beta (Homo sapiens, UniProt P08588+P07550+P13945). Put plainly: Compound was evaluated for Beta adrenergic receptor binding. In kind it is protein assay.
A further experiment deals with D(1A) dopamine receptor (Homo sapiens, UniProt P21728). As to the kind of experiment: Compound was evaluated for Dopamine receptor D1 binding.
A further experiment deals with D(2) dopamine receptor (Homo sapiens, UniProt P14416). Put plainly: Compound was evaluated for Dopamine receptor D2 binding.
Chain of D(2) dopamine receptor (P14416 whole entry): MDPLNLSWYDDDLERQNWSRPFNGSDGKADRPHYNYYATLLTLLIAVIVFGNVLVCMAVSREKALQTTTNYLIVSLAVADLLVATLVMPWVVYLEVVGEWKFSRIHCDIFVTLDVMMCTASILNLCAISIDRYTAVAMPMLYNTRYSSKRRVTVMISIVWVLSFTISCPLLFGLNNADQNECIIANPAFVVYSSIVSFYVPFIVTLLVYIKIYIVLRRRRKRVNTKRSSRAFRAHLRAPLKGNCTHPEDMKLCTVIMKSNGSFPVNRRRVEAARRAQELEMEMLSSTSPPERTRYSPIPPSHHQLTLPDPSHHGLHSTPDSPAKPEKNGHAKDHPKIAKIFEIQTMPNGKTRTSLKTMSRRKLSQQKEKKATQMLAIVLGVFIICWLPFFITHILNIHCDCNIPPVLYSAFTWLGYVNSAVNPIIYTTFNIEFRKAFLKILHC

T1 sequence (Q62758 whole entry): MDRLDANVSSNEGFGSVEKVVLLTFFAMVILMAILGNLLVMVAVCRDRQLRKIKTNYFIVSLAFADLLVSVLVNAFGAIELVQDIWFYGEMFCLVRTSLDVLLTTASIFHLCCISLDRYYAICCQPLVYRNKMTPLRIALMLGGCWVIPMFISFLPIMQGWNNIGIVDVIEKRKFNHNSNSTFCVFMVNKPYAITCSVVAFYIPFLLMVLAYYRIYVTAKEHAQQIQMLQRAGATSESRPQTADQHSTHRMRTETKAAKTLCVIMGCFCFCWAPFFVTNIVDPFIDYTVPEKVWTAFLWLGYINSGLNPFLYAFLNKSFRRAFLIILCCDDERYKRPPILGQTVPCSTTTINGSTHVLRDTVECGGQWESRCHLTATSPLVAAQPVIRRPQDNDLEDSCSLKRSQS
Chain of D(1A) dopamine receptor (P21728 whole entry): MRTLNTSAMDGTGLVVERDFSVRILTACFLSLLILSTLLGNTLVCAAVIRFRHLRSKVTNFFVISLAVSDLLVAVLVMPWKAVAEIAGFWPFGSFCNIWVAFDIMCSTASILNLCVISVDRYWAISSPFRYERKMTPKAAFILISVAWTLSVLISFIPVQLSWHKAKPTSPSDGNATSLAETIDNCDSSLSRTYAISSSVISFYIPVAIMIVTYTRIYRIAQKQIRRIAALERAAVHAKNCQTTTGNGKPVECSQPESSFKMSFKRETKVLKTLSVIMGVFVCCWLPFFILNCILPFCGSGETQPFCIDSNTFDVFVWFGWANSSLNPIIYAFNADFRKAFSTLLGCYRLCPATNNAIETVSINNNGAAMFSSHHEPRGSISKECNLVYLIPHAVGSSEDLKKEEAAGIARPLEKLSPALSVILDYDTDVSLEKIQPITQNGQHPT

Turning to `COc1cc(N)c(Cl)cc1C(=O)N[C@@H]1C2CC3CN(C2)CC31` (some centres not stated), the EC50 result in experiment [1] is given as “Not Active”.

On to `COc1cc(N)c(Cl)cc1C(=O)NC[C@@H]1CCN2CCC[C@@H]12`, for which the Ki is > 10000 nM in [2]; > 10000 nM in experiment [3]; 152 nM in [6]; > 10000 nM in experiment [7]; > 10000 nM in [8]; > 10000 nM on Adrenergic receptor beta. Also, the Ki at D(1A) dopamine receptor and at D(2) dopamine receptor was > 10000 nM in each case. Moreover, the values for the EC50 in experiment [4] and in experiment [5] were 23 nM and 66 nM, respectively.

`COc1cc(N)c(Cl)cc1C(=O)NC[C@@H]1CCN2CCC[C@@]12C` (racemic): in experiment [4], the EC50 was determined as 449 nM.

The term EC50 denotes the concentration needed to bring the measured effect to its halfway point. In general, Ki refers to a dissociation constant, usually derived from enzyme kinetics or from competition with a known ligand.
